Measurements taken from US9701662B2, “Herbicidal compounds” (Syngenta Participations AG, priority 2014, dated 2017).

Assays:
Type in all cases: in vivo
[1] = tested on: Amaranthus retoflexus (AMARE); assay: Post-emergence glasshouse herbicide test; settings: post-emergence (sprayed after 8 days cultivation), 1000 g/h, evaluated after 13 days, five point scale
Description: (§1) Seeds of a variety of test species are sown in standard soil in pots (Lolium perenne (LOLPE), Solanum nigrum (SOLNI), Amaranthus retoflexus (AMARE), Setaria faberi (SETFA), Echinochloa crus-galli (ECHCG), Ipomoea hederacea (IPOHE)). After cultivation for one day (pre-emergence) or after 8 days cultivation (post-emergence) under controlled conditions in a glasshouse (at 24/16° C., day/night; 14 hours light; 65% humidity), the plants are sprayed with an aqueous spray solution derived from the formulation of the technical active ingredient in acetone/water (50:50) solution containing 0.5% Tween 20 (polyoxyethelyene sorbitan monolaurate, CAS RN 9005-64-5). Compounds are applied at 1000 g/h. The test plants are then grown in a glasshouse under controlled conditions in a glasshouse (at 24/16° C., day/night; 14 hours light; 65% humidity) and watered twice daily. After 13 days for pre and post-emergence, the test is evaluated for the percentage damage caused to the plant. The biological activities are shown in the following table on a five point scale (5=80-100%; 4=60-79%; 3=40-59%; 2=20-39%; 1=0-19%).

[2] = tested on: Echinochloa crus-galli (ECHCG); assay: Post-emergence glasshouse herbicide test; settings: post-emergence (sprayed after 8 days cultivation), 1000 g/h, evaluated after 13 days, five point scale
Description: as §1

[3] = tested on: Ipomoea hederacea (IPOHE); assay: Post-emergence glasshouse herbicide test; settings: post-emergence (sprayed after 8 days cultivation), 1000 g/h, evaluated after 13 days, five point scale
Description: as §1

[4] = tested on: Lolium perenne (LOLPE); assay: Post-emergence glasshouse herbicide test; settings: post-emergence (sprayed after 8 days cultivation), 1000 g/h, evaluated after 13 days, five point scale
Description: as §1

[5] = tested on: Setaria faberi (SETFA); assay: Post-emergence glasshouse herbicide test; settings: post-emergence (sprayed after 8 days cultivation), 1000 g/h, evaluated after 13 days, five point scale
Description: as §1

[6] = tested on: Solanum nigrum (SOLNI); assay: Post-emergence glasshouse herbicide test; settings: post-emergence (sprayed after 8 days cultivation), 1000 g/h, evaluated after 13 days, five point scale
Description: as §1

[7] = tested on: Amaranthus retoflexus (AMARE); assay: Pre-emergence glasshouse herbicide test; settings: pre-emergence (sprayed after one day cultivation), 1000 g/h, evaluated after 13 days, five point scale
Description: as §1

[8] = tested on: Echinochloa crus-galli (ECHCG); assay: Pre-emergence glasshouse herbicide test; settings: pre-emergence (sprayed after one day cultivation), 1000 g/h, evaluated after 13 days, five point scale
Description: as §1

[9] = tested on: Ipomoea hederacea (IPOHE); assay: Pre-emergence glasshouse herbicide test; settings: pre-emergence (sprayed after one day cultivation), 1000 g/h, evaluated after 13 days, five point scale
Description: as §1

[10] = tested on: Lolium perenne (LOLPE); assay: Pre-emergence glasshouse herbicide test; settings: pre-emergence (sprayed after one day cultivation), 1000 g/h, evaluated after 13 days, five point scale
Description: as §1

[11] = tested on: Setaria faberi (SETFA); assay: Pre-emergence glasshouse herbicide test; settings: pre-emergence (sprayed after one day cultivation), 1000 g/h, evaluated after 13 days, five point scale
Description: as §1

[12] = tested on: Solanum nigrum (SOLNI); assay: Pre-emergence glasshouse herbicide test; settings: pre-emergence (sprayed after one day cultivation), 1000 g/h, evaluated after 13 days, five point scale
Description: as §1

SMILES | percentage damage caused to the plant, AMARE, POST Application [1] | percentage damage caused to the plant, ECHCG, POST Application [2] | percentage damage caused to the plant, IPOHE, POST Application [3] | percentage damage caused to the plant, LOLPE, POST Application [4] | percentage damage caused to the plant, SETFA, POST Application [5] | percentage damage caused to the plant, SOLNI, POST Application [6] | percentage damage caused to the plant, AMARE, PRE Application [7] | percentage damage caused to the plant, ECHCG, PRE Application [8] | percentage damage caused to the plant, IPOHE, PRE Application [9] | percentage damage caused to the plant, LOLPE, PRE Application [10] | percentage damage caused to the plant, SETFA, PRE Application [11] | percentage damage caused to the plant, SOLNI, PRE Application [12]
Cn1nnnc1NC(=O)c1nn(C)c(=O)c(-c2ccc(Cl)c(Cl)c2)c1Cl [Compound 1.019] | 3 (3=40-59%) | 5 (5=80-100%) | 4 (4=60-79%) | 5 (5=80-100%) | 5 (5=80-100%) | 5 (5=80-100%) | 5 (5=80-100%) | 5 (5=80-100%) | 3 (3=40-59%) | 5 (5=80-100%) | 5 (5=80-100%) | 5 (5=80-100%)
CCOc1c(C(=O)Nc2nnnn2C)nn(C)c(=O)c1C [Compound 1.009] | 5 (5=80-100%) | 5 (5=80-100%) | 5 (5=80-100%) | 4 (4=60-79%) | 5 (5=80-100%) | 5 (5=80-100%) | 5 (5=80-100%) | 4 (4=60-79%) | 5 (5=80-100%) | 3 (3=40-59%) | 3 (3=40-59%) | 5 (5=80-100%)
CCOc1c(C(=O)Nc2nnnn2C)nn(C)c(=O)c1-c1ccccc1 [Compound 1.031] | 5 (5=80-100%) | 5 (5=80-100%) | 5 (5=80-100%) | 4 (4=60-79%) | 5 (5=80-100%) | 5 (5=80-100%) | 5 (5=80-100%) | 5 (5=80-100%) | 5 (5=80-100%) | 3 (3=40-59%) | 5 (5=80-100%) | 5 (5=80-100%)
Cn1nnnc1NC(=O)c1nn(C)c(=O)c(-c2ccc(Cl)cc2Cl)c1Cl [Compound 1.011] | 3 (3=40-59%) | 5 (5=80-100%) | 4 (4=60-79%) | 5 (5=80-100%) | 5 (5=80-100%) | 5 (5=80-100%) | 5 (5=80-100%) | 5 (5=80-100%) | 3 (3=40-59%) | 5 (5=80-100%) | 5 (5=80-100%) | 5 (5=80-100%)
Cn1nnnc1NC(=O)c1nn(C)c(=O)c(-c2ccc(Cl)cc2)c1Cl [Compound 1.013] | 3 (3=40-59%) | 5 (5=80-100%) | 2 (2=20-39%) | 5 (5=80-100%) | 3 (3=40-59%) | 5 (5=80-100%) | 5 (5=80-100%) | 5 (5=80-100%) | 2 (2=20-39%) | 5 (5=80-100%) | 5 (5=80-100%) | 5 (5=80-100%)
COc1ccc(-c2c(Cl)c(C(=O)Nc3nnnn3C)nn(C)c2=O)cc1 [Compound 1.016] | 5 (5=80-100%) | 5 (5=80-100%) | 4 (4=60-79%) | 5 (5=80-100%) | 5 (5=80-100%) | 5 (5=80-100%) | 5 (5=80-100%) | 5 (5=80-100%) | 1 (1=0-19%) | 5 (5=80-100%) | 5 (5=80-100%) | 5 (5=80-100%)
Cn1nnnc1NC(=O)c1nn(C)c(=O)c(-c2ccccc2)c1Cl [Compound 1.010] | 5 (5=80-100%) | 5 (5=80-100%) | 4 (4=60-79%) | 4 (4=60-79%) | 5 (5=80-100%) | 5 (5=80-100%) | 5 (5=80-100%) | 5 (5=80-100%) | 1 (1=0-19%) | 5 (5=80-100%) | 5 (5=80-100%) | 5 (5=80-100%)
Cn1nnnc1NC(=O)c1nn(C)c(=O)c(-c2cccc(C(F)(F)F)c2)c1Cl [Compound 1.030] | 5 (5=80-100%) | 5 (5=80-100%) | 4 (4=60-79%) | 5 (5=80-100%) | 5 (5=80-100%) | 5 (5=80-100%) | 5 (5=80-100%) | 5 (5=80-100%) | 2 (2=20-39%) | 5 (5=80-100%) | 5 (5=80-100%) | 5 (5=80-100%)
Cc1c(Cl)c(C(=O)Nc2nnnn2C)nn(C)c1=O [Compound 1.007] | 5 (5=80-100%) | 5 (5=80-100%) | 5 (5=80-100%) | 5 (5=80-100%) | 5 (5=80-100%) | 5 (5=80-100%) | 5 (5=80-100%) | 5 (5=80-100%) | 5 (5=80-100%) | 5 (5=80-100%) | 5 (5=80-100%) | 5 (5=80-100%)
